Source: PMC9837865 (Pharmacology, biochemistry, and behavior, 2022)
Like-named read-outs stand apart in the source and are kept apart here.

Columns and labels:
male ICR mice [1] = test: Rectal temperature time course
hCB1 receptor [2] = target: T1, hCB1 receptor (Homo sapiens, UniProt P21554); test: Agonist-stimulated [35S]GTPγS binding, hCB1 HEK293 membranes
hCB2 receptor [3] = target: T2, hCB2 receptor (Homo sapiens, UniProt P34972); test: Agonist-stimulated [35S]GTPγS binding, hCB2 HEK293 membranes; settings: for greater potency at hCB2 receptors than at hCB1 receptors: [35S]GTPγS potency ratio
T2 sequence (P34972 whole entry): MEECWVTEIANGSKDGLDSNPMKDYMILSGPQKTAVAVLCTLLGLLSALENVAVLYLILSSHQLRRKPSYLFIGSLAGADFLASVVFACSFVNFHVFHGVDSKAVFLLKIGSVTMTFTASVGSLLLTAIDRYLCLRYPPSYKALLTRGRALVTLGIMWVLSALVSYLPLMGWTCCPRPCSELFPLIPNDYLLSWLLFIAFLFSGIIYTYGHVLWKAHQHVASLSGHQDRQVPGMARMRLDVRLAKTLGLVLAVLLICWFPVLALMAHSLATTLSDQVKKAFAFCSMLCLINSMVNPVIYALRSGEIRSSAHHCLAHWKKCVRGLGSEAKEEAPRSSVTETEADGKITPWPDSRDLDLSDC

hCB1 receptor [4] = target: T1, hCB1 receptor; test: [3H]CP55,940 competition binding at hCB1 in HEK293 cell membranes; settings: for Ki: value in parenthesis
hCB2 receptor [5] = target: T2, hCB2 receptor; test: [3H]CP55,940 competition binding at hCB2 in HEK293 cell membranes; settings: for greater affinity at hCB2 receptors than at hCB1: binding affinity ratio hCB2 over hCB1
male ICR mice [6] = test: Rectal temperature dose-effect; settings: for maximal hypothermia, difference from that produced by Δ9-THC: across the dose range tested
[7] = radiotelemetry, 6-h period; ref Sparkes et al., 2022; cited from earlier work
[8] = 3 mg/kg i.p., compared to vehicle at same timepoint
[9] = [35S]GTPγS Turnover CB2 EC50, value in parenthesis
[10] = [35S]GTPγS Turnover CB2 pEC50, pEC50 ± SEM
[11] = CB1 Ki, [3H]CP55,940 displacement
[12] = CB2 Ki, [3H]CP55,940 displacement, value in parenthesis
[13] = 10 mg/kg i.p., compared to vehicle at same timepoint
[14] = 100 mg/kg i.p., compared to vehicle at same timepoint
[15] = [3H]CP55,940 displacement, pKi ± SEM

T1 sequence (P21554 whole entry): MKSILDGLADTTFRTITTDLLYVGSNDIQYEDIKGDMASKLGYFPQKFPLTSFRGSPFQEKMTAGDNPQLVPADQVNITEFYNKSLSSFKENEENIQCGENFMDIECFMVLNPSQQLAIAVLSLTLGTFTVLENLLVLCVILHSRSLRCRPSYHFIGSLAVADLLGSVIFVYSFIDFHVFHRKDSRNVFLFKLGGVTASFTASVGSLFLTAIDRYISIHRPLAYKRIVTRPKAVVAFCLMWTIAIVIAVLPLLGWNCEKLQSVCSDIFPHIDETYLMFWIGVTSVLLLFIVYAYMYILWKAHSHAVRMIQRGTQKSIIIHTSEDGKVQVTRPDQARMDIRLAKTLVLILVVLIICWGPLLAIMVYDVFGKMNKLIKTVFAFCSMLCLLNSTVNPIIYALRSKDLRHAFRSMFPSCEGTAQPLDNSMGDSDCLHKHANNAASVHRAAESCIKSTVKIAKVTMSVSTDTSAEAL

SMILES	duration of significant hypothermic effect (male ICR mice [1]; [8]) [h]	EC50 (hCB1 receptor [2]) [nM]	[35S]GTPγS Turnover CB1 Emax (hCB1 receptor [2])	[35S]GTPγS Turnover CB2 Emax (hCB2 receptor [3])	EC50 (hCB2 receptor [3]; [9]) [nM]	Ki (hCB1 receptor [4]; [11]) [nM]	Ki (hCB2 receptor [5]; [12]) [nM]	maximal hypothermia, difference from that produced by Δ9-THC (male ICR mice [6]) [°C]	greater potency at hCB2 receptors than at hCB1 receptors (hCB2 receptor [3]) [fold]	greater affinity at hCB2 receptors than at hCB1 (hCB2 receptor [5]) [fold]	other results
CCOC(=O)C(NC(=O)c1nn(CCCCCF)c2ccccc12)C(C)(C)C (stereo not drawn) [5F-EDMB-PINACA, ethyl 2-(1-(5-fluoropentyl)-1H-indazole-3-carboxamido)-3,3-dimethylbutanoate]	3	1.6	387 ± 69.0 ^† 3 % stimulation over basal	161 ± 8.36 3 % stimulation over basal	0.442	0.378	0.312				EC50 (hCB2 receptor [3]; [10]): 0.437 nM
CC1(C)C(C(=O)c2cn(Cc3ccc(F)cc3)c3ccccc23)C1(C)C [FUB-144, (1-(4-fluorobenzyl)-1H-indol-3-yl)(2,2,3,3-tetramethylcyclopropyl)methanone]		90.6	218 ± 31.5 4 % stimulation over basal	194 ± 8.45 3 % stimulation over basal	4.61	27.2	1.19	≤ 1.5	20	23	duration of significant hypothermic effect (male ICR mice [1]; 20 mg/kg i.p.): 1 h; Ki (hCB2 receptor [5]; CB2 pKi, [3H]CP55,940 displacement, pKi ± SEM): 1.17 nM
COC(=O)[C@@H](NC(=O)c1cn(CCCCCF)c2ccccc12)C(C)(C)C [5F-MDMB-PICA, methyl (2S)-2-{[1-(5-fluoropentyl)-1H-indole-3-carbonyl]amino}-3,3-dimethylbutanoate]	7	5.07	380 ± 27.4 ^^ 3 % stimulation over basal	189 ± 25.2 3 % stimulation over basal	1.65	1.25	0.437				
COC(=O)[C@@H](NC(=O)c1cn(CCCCCF)c2ccccc12)C(C)C [5F-MMB-PICA, methyl (2S)-2-[[1-(5-fluoropentyl)indole-3-carbonyl]amino]-3-methylbutanoate]		27	295 ± 21.2 ^† 3 % stimulation over basal	77.8 ± 13.3 3 % stimulation over basal	8.19	6.45	3.4	≤ 1.5			duration of significant hypothermic effect (male ICR mice [1]; [13]): 3 h
C=CCCCn1nc(C(=O)NC(C(=O)OC)C(C)(C)C)c2ccccc21 (stereo not drawn) [MDMB-4en-PINACA, methyl 3,3-dimethyl-2-{[1-(pent-4-en-1-yl)-1H-indazole-3-carbonyl]amino}butanoate]	4	3.3	304 ± 42.8 ^‡ 3 % stimulation over basal	63.6 ± 9.95 3 % stimulation over basal	1.34	1.4	0.213			7	
CCCCn1nc(C(=O)N[C@@H](Cc2ccccc2)C(N)=O)c2ccccc21 [APP-BINACA, N-[(2S)-1-amino-1-oxo-3-phenylpropan-2-yl]-1-butylindazole-3-carboxamide]		344	180 ± 25.1 3 % stimulation over basal	83.2 ± 2.72 3 % stimulation over basal	2.24	107	9.34		153	12	hypothermia [7]: failed to produce any hypothermia; duration of significant hypothermic effect (male ICR mice [1]; [14]): 4 h
CCCCCc1cc(O)c2c(c1)OC(C)(C)[C@@H]1CCC(C)=C[C@@H]21 [Δ^9-THC, Δ^9-tetrahydrocannabinol, reference compound]											lowest dose that decreased temperature (male ICR mice [6]; i.p., compared to vehicle): 30 mg/kg; time of peak hypothermic effect post-injection (male ICR mice [1]; 100 mg/kg i.p.): 1 to 3 h; duration of significant hypothermic effect (male ICR mice [1]; [14]): 8 h; time of peak hypothermic effects (male ICR mice [1]; single dose of each compound, as summarised in the discussion): 2 h
C=CCCCn1cc(C(=O)NC(C(=O)OC)C(C)C)c2ccccc21 (stereo not drawn) [MMB-4en-PICA, methyl 3-methyl-2-[(1-pent-4-enylindole-3-carbonyl)amino]butanoate]		60.7	298 ± 31.9 ^‡ 4 % stimulation over basal	77.6 ± 7.17 5 % stimulation over basal	12.4	39	15.6	≤ 1.5			duration of significant hypothermic effect (male ICR mice [1]; 60 mg/kg i.p.): 5 h
O=C(NC12CC3CC(CC(C3)C1)C2)c1nn(Cc2ccc(F)cc2)c2ccccc12 [FUB-AKB48, N-((3s,5s,7s)-adamantan-1-yl)-1-(4-fluorobenzyl)-1H-indazole-3-carboxamide]			368 ± 55.5 ^‡ 4 % stimulation over basal	131 ± 16.5 4 % stimulation over basal				≤ 1.5	16		duration of significant hypothermic effect (male ICR mice [1]; [13]): ≤ 1 h; [35S]GTPγS Turnover CB1 pEC50 (hCB1 receptor [2]; pEC50 ± SEM): 8.16 ± 0.162; EC50 (hCB1 receptor [2]; read-out: [35S]GTPγS Turnover CB1 EC50, value in parenthesis): 6.94 nM; [35S]GTPγS Turnover CB2 pEC50 (hCB2 receptor [3]; pEC50 ± SEM): 9.37 ± 0.318; EC50 (hCB2 receptor [3]; read-out: [35S]GTPγS Turnover CB2 EC50, value in parenthesis): 0.424 nM; CB1 pKi (hCB1 receptor [4]; [15]): 8.89 ± 0.265; Ki (hCB1 receptor [4]; read-out: CB1 Ki, [3H]CP55,940 displacement): 1.3 nM; CB2 pKi (hCB2 receptor [5]; [15]): 9.08 ± 0.0188; Ki (hCB2 receptor [5]; read-out: CB2 Ki, [3H]CP55,940 displacement, value in parenthesis): 0.823 nM
COC(=O)C(NC(=O)c1cn(Cc2ccc(F)cc2)c2ccccc12)C(C)C (stereo not drawn) [MMB-FUBICA, methyl 2-(1-(4-fluorobenzyl)-1H-indole-3-carboxamido)-3-methylbutanoate]		59.7	278 ± 29.3 ^† 3 % stimulation over basal	52.1 ± 6.73 3 % stimulation over basal	22.1	12	22.5	≤ 1.5			duration of significant hypothermic effect (male ICR mice [1]; 6 mg/kg i.p.): 2 h; EC50 (hCB2 receptor [3]; [10]): 22.4 nM; greater affinity for CB1 than CB2 (hCB1 receptor [4]; binding affinity ratio CB1 over CB2): approximately 2 fold
